The record followed here is patent publication US20050107386A1, “Methods of treating diseases and disorders by targeting multiple kinases” (priority 2003, published 2005).

Common to all, as to conditions: 3 μM; percent of control kinase activity
In one assay the target is CDK6/cyclinD3(h) (Homo sapiens, UniProt Q00534). Kind of assay: CDK6/cyclinD3(h) kinase assay. The assay is classed as biochemical. The protocol:
(§1) Six compounds (presumptive single agents) were tested against a panel of 50 kinases. The results are presented in Table 2; numbers for each kinase indicate the percent of control kinase activity in the presence of a 3μM concentration of the indicated agent.
(§2) Agents that target two or more different kinases are useful in the methods of the invention as described elsewhere herein. Such compounds may be identified, and their effect on certain kinases may be identified, using the assays briefly described below in Examples 4-83. Each of these assays was carried out as described in Davies et al., Biochem. J., 351:95-105 (2000). All assays were carried out at 10 μM ATP unless otherwise noted.
(§3) In a final reaction volume of 25 μl, CDK6/cyclinD3 (h) (5-10 mU) is incubated with 8 mM MOPS pH 7.0, 0.2 mM EDTA, 0.1 mg/ml histone H1, 10 mM MgAcetate and [γ-33p-ATP] (specific activity approx. 500 cpm/pmol, concentration as required). The reaction is initiated by the addition of Mg^2+ [γ-33P-ATP]. After incubation for 40 minutes at room temperature, the reaction is stopped by the addition of 5 μl of a 3% phosphoric acid solution. 10 μl of the reaction is then spotted onto a P30 filtermat and washed three times for 5 minutes in 75 mM phosphoric acid and once in methanol prior to drying and scintillation counting.

The subject of another assay is c-RAF(h). As to the kind of experiment: c-RAF(h) kinase assay. The assay is classed as biochemical, human. As to the method: as §1, §2
(§4) In a final reaction volume of 25 μl, c-RAF (h) (5-10 mU) is incubated with 25 mM Tris pH 7.5, 0.02 mM EGTA, 0.66 mg/ml myelin basic protein, 10 mM MgAcetate and [γ-^33P-ATP] (specific activity approx. 500 cpm/pmol, concentration as required). The reaction is initiated by the addition of Mg^2+ [γ-^33P-ATP]. After incubation for 40 minutes at room temperature, the reaction is stopped by the addition of 5 μl of a 3% phosphoric acid solution. 10 μl of the reaction is then spotted onto a P30 filtermat and washed three times for 5 minutes in 75 mM phosphoric acid and once in methanol prior to drying and scintillation counting.

For a further assay, the target named is Lck(h) (Homo sapiens, UniProt P06239). As to the kind of experiment: Lck(h) kinase assay. In kind it is biochemical. As to the method: as §1, §2
as §4, with “μl, Lck(h)” for “μl, c-RAF (h)”, “with 50” for “with 25”, “7.5, 0.1” for “7.5, 0.02”, “EGTA, 0.1 mM NaVanadate, 250 μM […] (Cdc2 peptide; SEQ ID NO:7),” for “EGTA, 0.66 mg/ml myelin basic protein,”

The target in a further assay is Syk(h) (Homo sapiens, UniProt P43405). Kind of assay: Syk(h) kinase assay. The assay is classed as biochemical. The protocol: as §1, §2
as §4, with “μl, Syk” for “μl, c-RAF”, “with 50” for “with 25”, “7.5, 0.1” for “7.5, 0.02”, “EGTA, 0.1 mM NaVanadate, 0.1% β-mercaptoethanol, 0.1” for “EGTA, 0.66”, “mg/ml poly(Glu, Tyr) 4:1,” for “mg/ml myelin basic protein,”, “a Filtermat A” for “a P30 filtermat”

Another assay deals with MAPKAP-K2(h) (Homo sapiens, UniProt P49137). As to the kind of experiment: MAPKAP-K2(h) kinase assay. The assay is classed as biochemical. The protocol: as §1, §2
as §4, with “μl, MAPKAP-K2” for “μl, c-RAF”, “with 50” for “with 25”, “mM Na-β-glycerophosphate” for “mM Tris”, “7.5, 0.1” for “7.5, 0.02”, “EGTA, 30 μM […] (SEQ ID NO:11),” for “EGTA, 0.66 mg/ml myelin basic protein,”, “[γ-^33P-ATP] (Specific” for “[γ-^33P-ATP] (specific”

The target of a further assay is Rsk3(h) (Homo sapiens, UniProt Q15349). As to the kind of experiment: Rsk3(h) kinase assay. In kind it is biochemical. As to the method: as §1, §2
as §3, with “Rsk3” for “CDK6/cyclinD3”, “30 μM […] (SEQ ID NO:11),” for “0.1 mg/ml histone H1,”, “[γ-^33P-ATP]” for “[γ-33p-ATP]”, “[γ-^33P-ATP].” for “[γ-33P-ATP].”

Sequence of MAPKAP-K2(h) (P49137 whole entry): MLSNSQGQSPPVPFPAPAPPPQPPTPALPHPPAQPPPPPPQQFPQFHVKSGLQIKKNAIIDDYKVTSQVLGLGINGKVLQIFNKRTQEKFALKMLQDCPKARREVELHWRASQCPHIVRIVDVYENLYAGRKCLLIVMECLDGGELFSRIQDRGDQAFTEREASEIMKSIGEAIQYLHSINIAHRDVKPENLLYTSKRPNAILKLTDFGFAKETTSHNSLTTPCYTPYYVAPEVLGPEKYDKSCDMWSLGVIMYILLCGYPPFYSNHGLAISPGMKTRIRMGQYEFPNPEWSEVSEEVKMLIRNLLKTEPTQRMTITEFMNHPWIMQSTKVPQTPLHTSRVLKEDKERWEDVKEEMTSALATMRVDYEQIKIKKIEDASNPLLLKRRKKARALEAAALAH
Sequence of Rsk3(h) (Q15349 whole entry): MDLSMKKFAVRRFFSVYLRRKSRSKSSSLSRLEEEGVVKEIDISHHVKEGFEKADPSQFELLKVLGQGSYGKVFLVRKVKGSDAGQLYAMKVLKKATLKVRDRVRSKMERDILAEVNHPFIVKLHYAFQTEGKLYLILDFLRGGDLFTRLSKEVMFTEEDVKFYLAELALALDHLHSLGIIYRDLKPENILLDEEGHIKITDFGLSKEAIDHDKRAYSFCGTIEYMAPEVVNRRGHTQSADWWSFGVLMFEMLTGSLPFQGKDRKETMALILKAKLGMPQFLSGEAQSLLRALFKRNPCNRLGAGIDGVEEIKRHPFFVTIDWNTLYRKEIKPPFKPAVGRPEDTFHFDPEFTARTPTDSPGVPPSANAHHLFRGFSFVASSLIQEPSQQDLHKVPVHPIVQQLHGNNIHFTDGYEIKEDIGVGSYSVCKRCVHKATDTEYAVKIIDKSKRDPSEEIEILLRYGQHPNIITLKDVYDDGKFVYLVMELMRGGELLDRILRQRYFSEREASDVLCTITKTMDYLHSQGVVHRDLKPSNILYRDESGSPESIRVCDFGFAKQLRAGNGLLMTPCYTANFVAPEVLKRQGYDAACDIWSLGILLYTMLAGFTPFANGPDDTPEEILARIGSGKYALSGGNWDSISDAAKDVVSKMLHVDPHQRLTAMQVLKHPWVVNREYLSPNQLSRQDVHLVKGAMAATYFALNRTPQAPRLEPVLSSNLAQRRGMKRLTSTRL
Sequence of CDK6/cyclinD3(h) (Q00534 whole entry): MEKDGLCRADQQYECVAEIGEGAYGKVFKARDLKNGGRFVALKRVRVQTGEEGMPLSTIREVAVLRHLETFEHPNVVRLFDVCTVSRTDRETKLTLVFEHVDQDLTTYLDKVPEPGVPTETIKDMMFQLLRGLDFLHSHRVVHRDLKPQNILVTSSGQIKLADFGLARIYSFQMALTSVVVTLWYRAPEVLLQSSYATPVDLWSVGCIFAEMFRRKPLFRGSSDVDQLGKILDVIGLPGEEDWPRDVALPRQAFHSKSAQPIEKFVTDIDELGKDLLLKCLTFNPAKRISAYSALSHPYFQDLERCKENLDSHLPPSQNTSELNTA
Sequence of CDK6/cyclinD3(h) (P30281 whole entry partner): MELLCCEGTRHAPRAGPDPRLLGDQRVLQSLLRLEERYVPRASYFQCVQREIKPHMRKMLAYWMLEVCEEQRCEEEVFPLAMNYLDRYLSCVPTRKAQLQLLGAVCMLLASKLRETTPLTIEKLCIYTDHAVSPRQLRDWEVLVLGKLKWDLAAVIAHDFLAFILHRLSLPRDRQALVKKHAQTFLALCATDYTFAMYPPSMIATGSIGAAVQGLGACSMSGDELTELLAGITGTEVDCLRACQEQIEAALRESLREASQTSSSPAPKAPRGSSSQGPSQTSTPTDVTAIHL
Sequence of Lck(h) (P06239 whole entry): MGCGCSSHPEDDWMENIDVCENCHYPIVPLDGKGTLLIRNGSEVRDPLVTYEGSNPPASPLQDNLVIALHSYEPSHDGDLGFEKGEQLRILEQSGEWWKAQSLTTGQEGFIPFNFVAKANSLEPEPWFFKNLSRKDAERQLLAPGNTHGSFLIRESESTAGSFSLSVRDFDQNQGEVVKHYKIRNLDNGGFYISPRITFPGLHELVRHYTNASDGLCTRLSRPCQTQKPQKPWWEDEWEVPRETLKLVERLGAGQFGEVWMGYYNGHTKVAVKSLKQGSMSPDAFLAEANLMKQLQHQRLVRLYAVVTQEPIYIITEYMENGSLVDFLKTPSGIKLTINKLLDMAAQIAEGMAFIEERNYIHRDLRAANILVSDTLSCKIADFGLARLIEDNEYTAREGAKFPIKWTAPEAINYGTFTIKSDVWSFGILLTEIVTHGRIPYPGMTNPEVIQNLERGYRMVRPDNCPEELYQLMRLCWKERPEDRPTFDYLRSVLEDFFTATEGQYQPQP

For the compound `CC(C)Cc1nc(-c2ccc3[nH]nc(-c4ccc5cc(OCCN6CCCC6)ccc5c4)c3c2)n[nH]1` [CC002, 5-(5-Isobutyl-1H-[1,2,4]Triazol-3-yl)-3-[6-(2-Pyrrolidin-1-yl-Ethoxy)-Naphthalen-2-yl]-1H-Indazole], the “Inhibitory activity (% of control), CDK6/cyclinD3(h)” value at CDK6/cyclinD3(h) was 59 % of control. For the same compound, the “Inhibitory activity (% of control), c-RAF(h)” value with c-RAF(h) is 96 % of control. The “Inhibitory activity (% of control), Lck(h)” value on Lck(h) is reported as 5 % of control. At Syk(h), the “Inhibitory activity (% of control), Syk(h)” value is on record as 14 % of control. At MAPKAP-K2(h), the “Inhibitory activity (% of control), MAPKAP-K2(h)” value is listed as 72 % of control. Moreover, on Rsk3(h), the “Inhibitory activity (% of control), Rsk3(h)” value is recorded as 5 % of control.
On to `CCN1CCC[C@H]1COc1ccc2cc(-c3n[nH]c4ccc(-c5nc(CC(C)(C)C)n[nH]5)cc34)ccc2c1` [CC005, 2-[((2s)-1-ethylpyrrolidin-2-yl)methoxy]-6-{5-[3-(2,2-Dimethylpropyl)(1H-1,2,4,-triazol-5-yl)](1H-indazol-3-yl)}naphthalene], for which the “Inhibitory activity (% of control), CDK6/cyclinD3(h)” value on CDK6/cyclinD3(h) was 29 % of control. In the assay on c-RAF(h), the “Inhibitory activity (% of control), c-RAF(h)” value was 100 % of control. The “Inhibitory activity (% of control), Lck(h)” value on Lck(h) is 6 % of control. Moreover, the “Inhibitory activity (% of control), Syk(h)” value at Syk(h) is on record as 15 % of control. In addition, at MAPKAP-K2(h), the “Inhibitory activity (% of control), MAPKAP-K2(h)” value is 56 % of control. For the same compound, the “Inhibitory activity (% of control), Rsk3(h)” value on Rsk3(h) is 4 % of control.
In the case of `Fc1ccc(-c2n[nH]c3ccc(-c4n[nH]c(C5CCCC5)n4)cc23)cc1` [CC006, 5-(5-Cyclopentyl-1H-[1,2,4]triazol-3-yl)-3-(4-fluoro-phenyl)-1H-indazole, reference compound], on CDK6/cyclinD3(h), the “Inhibitory activity (% of control), CDK6/cyclinD3(h)” value is listed as 63 % of control. Besides, the “Inhibitory activity (% of control), c-RAF(h)” value in the assay on c-RAF(h) is 99 % of control. For the same compound, the “Inhibitory activity (% of control), Lck(h)” value on Lck(h) is reported as 43 % of control. Besides, the “Inhibitory activity (% of control), Syk(h)” value at Syk(h) is reported as 46 % of control. On MAPKAP-K2(h), the “Inhibitory activity (% of control), MAPKAP-K2(h)” value is 96 % of control. Also, the “Inhibitory activity (% of control), Rsk3(h)” value on Rsk3(h) was 39 % of control.
Regarding `COc1ccc2cc(-c3n[nH]c4ccc(-c5n[nH]c(CN6CCOCC6)n5)cc34)ccc2c1` [CC001, 3-(6-Methoxynaphthalen-2-yl)-5-(5-Morpholin-4-Ylmethyl-1H-[1,2,4]Triazol-3-yl)-1H-Indazole], the “Inhibitory activity (% of control), CDK6/cyclinD3(h)” value at CDK6/cyclinD3(h) is 82 % of control. In addition, the “Inhibitory activity (% of control), c-RAF(h)” value in the assay with c-RAF(h) is given as 99 % of control. The “Inhibitory activity (% of control), Lck(h)” value at Lck(h) is 27 % of control. In addition, the “Inhibitory activity (% of control), Syk(h)” value at Syk(h) is given as 26 % of control. Also, the “Inhibitory activity (% of control), MAPKAP-K2(h)” value at MAPKAP-K2(h) is recorded as 97 % of control. In addition, the “Inhibitory activity (% of control), Rsk3(h)” value at Rsk3(h) is 4 % of control.
Take `CC(C)(C)Cc1nc(-c2ccc3[nH]nc(-c4ccc5cc(OCc6ccccn6)ccc5c4)c3c2)n[nH]1` [CC004, 5-[5-(2,2-Dimethyl-propyl)-1H-[1,2,4]triazol-3-yl]-3-[6-(pyridine-2-ylmethoxy)-naphthalen-2-yl]-1H-indazole]: the “Inhibitory activity (% of control), CDK6/cyclinD3(h)” value at CDK6/cyclinD3(h) is reported as 80 % of control. In the assay on c-RAF(h), the “Inhibitory activity (% of control), c-RAF(h)” value is recorded as 85 % of control. Moreover, at Lck(h), the “Inhibitory activity (% of control), Lck(h)” value is 57 % of control. In addition, on Syk(h), the “Inhibitory activity (% of control), Syk(h)” value was 47 % of control. The “Inhibitory activity (% of control), MAPKAP-K2(h)” value at MAPKAP-K2(h) is listed as 108 % of control. The “Inhibitory activity (% of control), Rsk3(h)” value on Rsk3(h) was 43 % of control.
As for `O=C(NC1CCCC1)c1cccc(-c2n[nH]c3ccc(-c4nc[nH]n4)cc23)c1` [CC007, 3-(5-(1H-1,2,4-triazol-3-yl)(1H-indazol-3-yl))phenyl-N-cyclopentylcarboxamide, reference compound], the “Inhibitory activity (% of control), CDK6/cyclinD3(h)” value at CDK6/cyclinD3(h) was 87 % of control. In addition, the “Inhibitory activity (% of control), c-RAF(h)” value in the assay on c-RAF(h) is reported as 92 % of control. Besides, at Lck(h), the “Inhibitory activity (% of control), Lck(h)” value is recorded as 56 % of control. Also, the “Inhibitory activity (% of control), Syk(h)” value at Syk(h) was 51 % of control. The “Inhibitory activity (% of control), MAPKAP-K2(h)” value on MAPKAP-K2(h) was 86 % of control. On Rsk3(h), the “Inhibitory activity (% of control), Rsk3(h)” value is 38 % of control.
